For nine compounds, IC50 and inhibition results are on record in patent US9388165B2, “Isoquinoline-5-carboxamide derivative having inhibitory activity for protein kinase” (HANMI PHARM. CO., LTD., priority 2012, dated 2016).

SMILES strings stand for the structures.

For assay [1], the system named is HepG2 cell lines (hepatoma carcinoma cell). In words: Inhibition on cell proliferation of HepG2 (SRB assay). It counts as cell-based. The settings on record: Homo sapiens, 72 hours treatment, SRB staining, read-out: Inhibitory activities against HepG2 (IC50). On the procedure:
HepG2 cell lines (ATCC #HB-8065™) were obtained from ATCC (American type culture collection; Rockville, Md.). HepG2 cell lines were incubated in a MEM medium supplemented with 10% FBS (Gibco) and 1% penicillin/streptomycin (Gibco) under 37° C., 5% CO2 and 95% air. The carcinoma cells grown on the growth medium were transferred into a 96-well plate at a density of 5,000 cells/well (HepG2), and cultured for 18 hours or more. The cells were treated with 10 μM˜0.1 nM of the test compounds, and cultured for 72 hours. Subsequently, the cells were fixed with 10% TCA (trichloroacetic acid) and stained with SRB (sulforhodamine B), and absorbance values were measured at 540 nm. Then, IC50 values, i.e., the concentration of a compound to cause 50% reduction in proliferation of cancer cells, were calculated therefrom. The growth rates of cancer cells were calculated by Equation 1 or 2. [(Ti−Tz)/(C−Tz)]×100 (in case Ti>Tz) [Equation 1] [(Ti−Tz)/Tz]×100 (in case Ti<Tz) [Equation 2]
In Equations 1 and 2, ‘Tz’ refers to a the absorbance value measured in the cells just before the application of the test compound. ‘C’ refers to the absorbance value measured in the […], and ‘Ti’ refers to the absorbance value measured in the cells treated with the test compounds.
IC50 value is the concentration of the test compound when the value of Equation 1 is 50, which indicates the concentration of the test compound needed to reduce the growth of cancer cells to 50%. On each measurement, the test compounds were compared with a reference.
(In general: In SRB staining, fixed cells bind dye roughly in proportion to their protein.)

The next assay addresses C-Raf (Homo sapiens (Human), UniProt P04049, Y340D/Y341D). In words: Inhibitory activity against C-Raf kinase (Invitrogen Kinase Profiling Service). It counts as biochemical. On the procedure: (§1) The compounds prepared in Examples were tested for inhibitory activities against three subtypes of RAF, i.e. RAF1 Y340D Y341D, BRAF normal type and BRAF V600E, using Kinase Profiling Service (Invitrogen) according to the manufacturer's instructions. The levels of the inhibitory activities of the compounds against the enzymes were calculated as % inhibitory activities at various concentrations. Based on the % inhibitory activities, dose-response curves were plotted and IC50 values were calculated using GraphPad Prism software.

Another assay concerns the target CDK1 (Homo sapiens (Human), UniProt P06493). The assay is described as follows: Kinase profiling, % inhibition at 1.0 μM. It counts as biochemical. The settings on record: compound 1.0 μM; read-out: Inhibitory activity at 1.0 μM (%), CDK1.
Another assay addresses CDK2 (Homo sapiens (Human), UniProt P24941). In words: Kinase profiling, % inhibition at 1.0 μM. It counts as biochemical. Conditions: compound 1.0 μM; read-out: Inhibitory activity at 1.0 μM (%), CDK2.
Another assay has as its target PLK1 (Homo sapiens (Human), UniProt P53350). The assay is described as follows: Kinase profiling, % inhibition at 1.0 μM. It counts as biochemical. Conditions: compound 1.0 μM; read-out: Inhibitory activity at 1.0 μM (%), PLK1.
The target in a further assay is Aurora B (Homo sapiens (Human), UniProt Q96GD4). The assay is described as follows: Kinase profiling, % inhibition at 1.0 μM. It counts as biochemical. The settings on record: compound 1.0 μM; read-out: Inhibitory activity at 1.0 μM (%), Aurora B. On the procedure:
[The source words this procedure for another target and says it was used here with some conditions changed.] as §1

A further assay has as its target FGFR4 (Homo sapiens (Human), UniProt P22455). The assay is described as follows: Kinase profiling, % inhibition at 1.0 μM. The format is biochemical. The settings on record: compound 1.0 μM; read-out: Inhibitory activity at 1.0 μM (%), FGFR4. The procedure:
[The source words this procedure for another target and says it was used here with some conditions changed.] as §1

In the next assay the target is PLK2 (Homo sapiens (Human), UniProt Q9NYY3). In words: Kinase profiling, % inhibition at 1.0 μM. The format is biochemical. The settings on record: compound 1.0 μM; read-out: Inhibitory activity at 1.0 μM (%), PLK2. On the procedure: [The source words this procedure for another target and says it was used here with some conditions changed.] as §1
A further assay has as its target PLK3 (Homo sapiens (Human), UniProt Q9H4B4). In words: Kinase profiling, % inhibition at 1.0 μM. The format is biochemical. Conditions: compound 1.0 μM; read-out: Inhibitory activity at 1.0 μM (%), PLK3. The procedure:
[The source words this procedure for another target and says it was used here with some conditions changed.] as §1

A further assay deals with Tie-2 (Homo sapiens (Human), UniProt Q02763). In words: Kinase profiling, % inhibition at 1.0 μM. The format is biochemical. The settings on record: compound 1.0 μM; read-out: Inhibitory activity at 1.0 μM (%), Tie-2. The procedure:
[The source words this procedure for another target and says it was used here with some conditions changed.] as §1

Another assay concerns the target VEGFR1 (Homo sapiens (Human), UniProt P17948). The assay is described as follows: Kinase profiling, % inhibition at 1.0 μM. The settings on record: compound 1.0 μM; read-out: Inhibitory activity at 1.0 μM (%), VEGFR1. It counts as biochemical. The procedure:
[The source words this procedure for another target and says it was used here with some conditions changed.] as §1

Another assay deals with c-Kit (Homo sapiens (Human), UniProt P10721). In words: Kinase profiling, % inhibition at 1.0 μM. It counts as biochemical. The settings on record: compound 1.0 μM; read-out: Inhibitory activity at 1.0 μM (%), c-Kit. On the procedure:
[The source words this procedure for another target and says it was used here with some conditions changed.] as §1

The next assay deals with Aurora A (Homo sapiens (Human), UniProt O14965). The assay is described as follows: Kinase profiling, % inhibition at 1.0 μM. The format is biochemical. Conditions: compound 1.0 μM; read-out: Inhibitory activity at 1.0 μM (%), Aurora A.
A further assay deals with Abl (Homo sapiens (Human), UniProt P00519). The assay is described as follows: Kinase profiling, IC50. The format is biochemical. The settings on record: read-out: Inhibitory activity (IC50, nM), Abl. The procedure: [The source words this procedure for another target and reports this target under the same test.] as §1
The target in a further assay is B-Raf (V600E) (Homo sapiens (Human), UniProt P15056, V600E). The assay is described as follows: Kinase profiling, IC50. The format is biochemical. The settings on record: read-out: Inhibitory activity (IC50, nM), B-Raf (V600E). The procedure: as §1
Chain of B-Raf (V600E) (P15056 whole entry V600E): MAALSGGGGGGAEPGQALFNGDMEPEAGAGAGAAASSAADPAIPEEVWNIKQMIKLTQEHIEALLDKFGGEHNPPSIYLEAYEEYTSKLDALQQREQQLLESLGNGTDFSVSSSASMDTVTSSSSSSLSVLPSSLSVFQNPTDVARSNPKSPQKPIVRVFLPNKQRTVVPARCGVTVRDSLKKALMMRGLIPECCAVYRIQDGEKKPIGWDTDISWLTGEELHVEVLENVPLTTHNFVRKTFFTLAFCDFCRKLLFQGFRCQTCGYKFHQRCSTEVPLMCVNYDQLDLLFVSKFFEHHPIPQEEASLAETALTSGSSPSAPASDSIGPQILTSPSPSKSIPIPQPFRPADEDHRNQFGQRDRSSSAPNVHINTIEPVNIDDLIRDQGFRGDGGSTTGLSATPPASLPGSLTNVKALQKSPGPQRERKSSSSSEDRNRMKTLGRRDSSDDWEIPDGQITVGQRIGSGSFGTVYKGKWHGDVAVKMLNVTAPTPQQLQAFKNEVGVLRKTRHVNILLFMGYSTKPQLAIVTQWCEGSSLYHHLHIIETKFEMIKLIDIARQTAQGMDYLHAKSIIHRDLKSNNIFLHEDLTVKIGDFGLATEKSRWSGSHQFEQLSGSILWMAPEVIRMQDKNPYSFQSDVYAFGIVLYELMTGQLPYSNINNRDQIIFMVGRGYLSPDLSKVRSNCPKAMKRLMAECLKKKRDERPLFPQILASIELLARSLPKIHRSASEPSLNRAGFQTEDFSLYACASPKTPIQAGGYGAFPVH
In a further assay the target is B-Raf (WT) (Homo sapiens (Human), UniProt P15056). The assay is described as follows: Kinase profiling, IC50. It counts as biochemical. The settings on record: read-out: Inhibitory activity (IC50, nM), B-Raf (WT). The procedure:
as §1

The target in another assay is EGFR (Homo sapiens (Human), UniProt P00533). The assay is described as follows: Kinase profiling, IC50. The format is biochemical. The settings on record: read-out: Inhibitory activity (IC50, nM), EGFR. On the procedure: [The source words this procedure for another target and reports this target under the same test.] as §1
Another assay deals with FGFR-1 (Homo sapiens (Human), UniProt P11362). In words: Kinase profiling, IC50. Conditions: read-out: Inhibitory activity (IC50, nM), FGFR-1. It counts as biochemical. On the procedure: [The source words this procedure for another target and reports this target under the same test.] as §1
Another assay deals with FGFR-2 (Homo sapiens (Human), UniProt P21802). The assay is described as follows: Kinase profiling, IC50. The settings on record: read-out: Inhibitory activity (IC50, nM), FGFR-2. The format is biochemical. On the procedure: [The source words this procedure for another target and reports this target under the same test.] as §1
Another assay addresses FLT-3 (Homo sapiens (Human), UniProt P36888). In words: Kinase profiling, IC50. The format is biochemical. The settings on record: read-out: Inhibitory activity (IC50, nM), FLT-3. The procedure: [The source words this procedure for another target and reports this target under the same test.] as §1
Another assay has as its target Her-2 (Homo sapiens (Human), UniProt P04626). In words: Kinase profiling, IC50. The format is biochemical. The settings on record: read-out: Inhibitory activity (IC50, nM), Her-2. On the procedure:
[The source words this procedure for another target and reports this target under the same test.] as §1

Another assay has as its target IGF-1R (Homo sapiens (Human), UniProt P08069). The assay is described as follows: Kinase profiling, IC50. The format is biochemical. Conditions: read-out: Inhibitory activity (IC50, nM), IGF-1R. The procedure: [The source words this procedure for another target and reports this target under the same test.] as §1
The target of a further assay is PDGFR-α (Homo sapiens (Human), UniProt P16234). In words: Kinase profiling, IC50. The format is biochemical. Conditions: read-out: Inhibitory activity (IC50, nM), PDGFR-α. The procedure: [The source words this procedure for another target and reports this target under the same test.] as §1
Chain of PDGFR-α (P16234 24-1089): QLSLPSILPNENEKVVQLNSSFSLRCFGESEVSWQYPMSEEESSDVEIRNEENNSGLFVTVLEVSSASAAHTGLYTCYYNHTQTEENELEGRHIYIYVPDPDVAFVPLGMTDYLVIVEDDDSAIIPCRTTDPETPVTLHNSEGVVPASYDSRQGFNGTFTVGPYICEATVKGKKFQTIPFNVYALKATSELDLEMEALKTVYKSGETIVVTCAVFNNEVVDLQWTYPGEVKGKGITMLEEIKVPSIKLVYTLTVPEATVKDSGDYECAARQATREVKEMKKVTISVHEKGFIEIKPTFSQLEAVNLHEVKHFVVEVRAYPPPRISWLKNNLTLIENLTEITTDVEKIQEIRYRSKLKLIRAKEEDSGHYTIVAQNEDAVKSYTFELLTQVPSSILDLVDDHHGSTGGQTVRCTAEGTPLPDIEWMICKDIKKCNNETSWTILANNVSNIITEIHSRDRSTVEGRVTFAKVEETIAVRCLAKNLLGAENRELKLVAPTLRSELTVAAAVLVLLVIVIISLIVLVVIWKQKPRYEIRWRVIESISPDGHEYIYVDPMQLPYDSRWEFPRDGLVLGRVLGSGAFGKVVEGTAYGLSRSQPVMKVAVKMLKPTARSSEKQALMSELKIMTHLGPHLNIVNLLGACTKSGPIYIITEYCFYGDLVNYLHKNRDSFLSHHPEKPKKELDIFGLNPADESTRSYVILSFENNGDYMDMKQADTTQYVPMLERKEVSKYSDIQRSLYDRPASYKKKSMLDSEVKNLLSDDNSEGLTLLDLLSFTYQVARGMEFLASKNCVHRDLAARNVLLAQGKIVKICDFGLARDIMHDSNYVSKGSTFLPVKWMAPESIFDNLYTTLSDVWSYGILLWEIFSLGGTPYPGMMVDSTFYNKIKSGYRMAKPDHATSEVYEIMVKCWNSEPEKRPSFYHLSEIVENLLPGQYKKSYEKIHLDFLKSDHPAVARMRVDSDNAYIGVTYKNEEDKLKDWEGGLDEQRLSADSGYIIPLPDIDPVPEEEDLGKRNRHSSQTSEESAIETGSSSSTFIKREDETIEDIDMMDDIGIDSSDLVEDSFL
The next assay concerns the target PDGFR-β (Homo sapiens (Human), UniProt P09619). The assay is described as follows: Kinase profiling, IC50. The format is biochemical. The settings on record: read-out: Inhibitory activity (IC50, nM), PDGFR-β. On the procedure:
[The source words this procedure for another target and reports this target under the same test.] as §1

The target of the next assay is Src (Homo sapiens (Human), UniProt P12931). In words: Kinase profiling, IC50. The format is biochemical. The settings on record: read-out: Inhibitory activity (IC50, nM), Src. The procedure: [The source words this procedure for another target and reports this target under the same test.] as §1
The next assay has as its target VEGFR-2 (Homo sapiens (Human), UniProt P35968). The assay is described as follows: Kinase profiling, IC50. It counts as biochemical. Conditions: read-out: Inhibitory activity (IC50, nM), VEGFR-2. On the procedure: [The source words this procedure for another target and reports this target under the same test.] as §1

Chain of C-Raf (P04049 whole entry Y340D/Y341D): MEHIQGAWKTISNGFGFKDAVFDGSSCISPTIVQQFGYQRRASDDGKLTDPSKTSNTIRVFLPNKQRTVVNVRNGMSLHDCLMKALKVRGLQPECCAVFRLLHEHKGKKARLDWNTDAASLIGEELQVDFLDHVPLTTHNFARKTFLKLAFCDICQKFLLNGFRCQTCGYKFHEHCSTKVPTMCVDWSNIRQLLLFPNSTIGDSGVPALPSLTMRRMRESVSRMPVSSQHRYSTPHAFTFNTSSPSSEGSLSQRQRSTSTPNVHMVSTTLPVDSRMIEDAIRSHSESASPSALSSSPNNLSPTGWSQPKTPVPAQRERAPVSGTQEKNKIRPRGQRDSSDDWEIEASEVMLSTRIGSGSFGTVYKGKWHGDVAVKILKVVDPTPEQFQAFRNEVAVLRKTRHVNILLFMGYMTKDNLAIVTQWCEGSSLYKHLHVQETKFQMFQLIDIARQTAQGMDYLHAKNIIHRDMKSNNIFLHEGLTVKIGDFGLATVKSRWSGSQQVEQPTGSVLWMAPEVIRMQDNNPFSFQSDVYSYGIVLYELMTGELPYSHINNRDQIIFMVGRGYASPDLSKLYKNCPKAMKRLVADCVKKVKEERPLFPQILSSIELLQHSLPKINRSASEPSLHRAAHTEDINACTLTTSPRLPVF
Chain of PDGFR-β (P09619 33-1106): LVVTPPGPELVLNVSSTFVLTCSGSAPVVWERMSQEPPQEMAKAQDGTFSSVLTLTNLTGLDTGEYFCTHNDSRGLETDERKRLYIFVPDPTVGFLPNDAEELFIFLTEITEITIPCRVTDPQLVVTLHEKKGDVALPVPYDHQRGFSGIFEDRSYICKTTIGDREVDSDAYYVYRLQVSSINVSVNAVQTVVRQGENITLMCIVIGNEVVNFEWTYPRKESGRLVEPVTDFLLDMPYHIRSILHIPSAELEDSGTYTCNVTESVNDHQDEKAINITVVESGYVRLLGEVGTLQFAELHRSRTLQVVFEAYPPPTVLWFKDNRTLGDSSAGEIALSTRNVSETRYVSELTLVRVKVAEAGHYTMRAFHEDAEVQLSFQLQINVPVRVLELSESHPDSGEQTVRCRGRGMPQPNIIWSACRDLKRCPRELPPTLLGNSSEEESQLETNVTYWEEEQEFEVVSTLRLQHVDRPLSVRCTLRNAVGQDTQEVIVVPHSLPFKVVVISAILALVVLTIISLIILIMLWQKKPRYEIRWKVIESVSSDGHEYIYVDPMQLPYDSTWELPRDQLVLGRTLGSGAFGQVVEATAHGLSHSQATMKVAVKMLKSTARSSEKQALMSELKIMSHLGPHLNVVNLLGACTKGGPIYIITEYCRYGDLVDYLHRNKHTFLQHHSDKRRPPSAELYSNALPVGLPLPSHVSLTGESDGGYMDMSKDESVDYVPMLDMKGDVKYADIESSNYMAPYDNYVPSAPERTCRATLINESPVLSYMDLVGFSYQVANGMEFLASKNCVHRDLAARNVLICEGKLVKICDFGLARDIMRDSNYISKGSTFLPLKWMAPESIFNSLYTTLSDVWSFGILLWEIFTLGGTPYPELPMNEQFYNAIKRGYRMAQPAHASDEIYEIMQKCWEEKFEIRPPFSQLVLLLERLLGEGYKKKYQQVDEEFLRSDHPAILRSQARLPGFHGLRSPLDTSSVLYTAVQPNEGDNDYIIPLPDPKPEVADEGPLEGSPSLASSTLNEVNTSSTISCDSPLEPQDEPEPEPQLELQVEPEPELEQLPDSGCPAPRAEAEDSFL
Chain of VEGFR1 (P17948 27-1338): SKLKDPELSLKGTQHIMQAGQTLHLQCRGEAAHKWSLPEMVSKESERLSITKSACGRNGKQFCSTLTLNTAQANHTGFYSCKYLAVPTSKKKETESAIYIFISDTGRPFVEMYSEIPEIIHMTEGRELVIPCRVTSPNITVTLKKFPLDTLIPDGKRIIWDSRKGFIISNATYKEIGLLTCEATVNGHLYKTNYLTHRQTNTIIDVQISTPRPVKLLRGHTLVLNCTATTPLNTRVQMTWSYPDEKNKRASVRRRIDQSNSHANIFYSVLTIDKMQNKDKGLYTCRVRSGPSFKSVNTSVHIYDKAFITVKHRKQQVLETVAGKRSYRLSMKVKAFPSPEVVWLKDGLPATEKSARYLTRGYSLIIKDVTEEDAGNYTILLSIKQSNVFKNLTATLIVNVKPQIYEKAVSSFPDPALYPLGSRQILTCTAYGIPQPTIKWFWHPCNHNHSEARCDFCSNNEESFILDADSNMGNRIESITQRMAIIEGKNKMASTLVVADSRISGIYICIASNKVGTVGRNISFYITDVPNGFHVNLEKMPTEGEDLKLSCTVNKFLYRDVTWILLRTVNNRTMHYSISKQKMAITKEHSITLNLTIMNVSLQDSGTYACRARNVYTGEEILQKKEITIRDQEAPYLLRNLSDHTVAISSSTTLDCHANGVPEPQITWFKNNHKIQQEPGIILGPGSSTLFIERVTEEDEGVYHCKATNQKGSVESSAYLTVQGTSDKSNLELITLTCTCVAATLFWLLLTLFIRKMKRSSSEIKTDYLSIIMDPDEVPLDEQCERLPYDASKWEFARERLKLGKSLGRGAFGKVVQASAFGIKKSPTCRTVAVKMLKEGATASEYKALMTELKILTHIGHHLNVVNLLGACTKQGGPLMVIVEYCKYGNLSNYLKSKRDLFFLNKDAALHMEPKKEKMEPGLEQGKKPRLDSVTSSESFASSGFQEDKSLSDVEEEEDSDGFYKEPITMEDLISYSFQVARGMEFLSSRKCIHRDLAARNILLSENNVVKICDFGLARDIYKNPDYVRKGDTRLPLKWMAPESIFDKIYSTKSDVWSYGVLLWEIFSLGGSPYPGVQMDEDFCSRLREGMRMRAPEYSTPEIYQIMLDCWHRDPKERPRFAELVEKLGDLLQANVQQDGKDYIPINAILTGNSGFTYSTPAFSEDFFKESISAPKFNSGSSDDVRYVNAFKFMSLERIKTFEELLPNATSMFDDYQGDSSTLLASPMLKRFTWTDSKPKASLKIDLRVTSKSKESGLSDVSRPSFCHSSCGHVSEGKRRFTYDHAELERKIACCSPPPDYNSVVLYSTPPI
Chain of B-Raf (WT) (P15056 whole entry): as the sequence (P15056 whole entry V600E) above, with E600V counted along it

What is called IC50 is the midpoint of a concentration-inhibition curve. Take `CCCS(=O)(=O)Nc1ccc(F)c(C(=O)c2c[nH]c3ncc(-c4ccc(Cl)cc4)cc23)c1F` [reference, Vemurafenib, reference compound]: in [1], the IC50 was over 10000 nM.
As for `Cc1ccc(C(=O)Nc2ccccc2)cc1NC(=O)c1cccc2c(NC(C)(C)C)nccc12` [Example 8, 1-(t-butylamino)-N-(2-methyl-5-(phenylcarbamoyl)phenyl)isoquinoline-5-carboxamide], it took 20.5 nM to reach half-maximal inhibition against C-Raf (IC50).
As for `Cc1ccc(C(=O)Nc2cccc(C(F)(F)F)c2)cc1NC(=O)c1cccc2c(NC(C)(C)C)nccc12` [Example 2, 1-(t-butylamino)-N-(2-methyl-5-((3-(trifluoromethyl)phenyl)carbamoyl)phenyl)isoquinoline-5-carboxamide], the results for the IC50 (at C-Raf; in [1]) were 11 nM and 365 nM, respectively.
In turn, `CCN1CCN(Cc2ccc(NC(=O)c3ccc(C)c(NC(=O)c4cccc5c(NC(C)(C)C)nccc45)c3)cc2C(F)(F)F)CC1` [Example 6, 1-(t-butylamino)-N-(5-((4-((4-ethylpiperazin-1-yl)methyl)-3-(trifluoromethyl)phenyl)carbamoyl)-2-methylphenyl)isoquinoline-5-carboxamide] yielded an IC50 against C-Raf of 6.4 nM.
Consider `Cc1ccc(C(=O)Nc2cccc(C(F)(F)F)c2)cc1NC(=O)c1cccc2c(N)nccc12` [Example 3, 1-amino-N-(2-methyl-5-((3-(trifluoromethyl)phenyl)carbamoyl)phenyl)isoquinoline-5-carboxamide], for which the half-inhibitory concentration (IC50) against C-Raf stood at 2.8 nM; in assay [1] it was 131 nM.
In the case of `Cc1ccc(NC(=O)Nc2cccc(C(F)(F)F)c2)cc1NC(=O)c1cccc2c(N)nccc12` [Example 14, 1-amino-N-(2-methyl-5-(3-(3-(trifluoromethyl)phenyl)ureido)phenyl)isoquinoline-5-carboxamide], the IC50 at C-Raf was found to be 108 nM.
In the case of `Cc1ccc(NC(=O)c2cccc(C(F)(F)F)c2)cc1NC(=O)c1cccc2c(N)nccc12` [Example 1, 1-amino-N-(2-methyl-5-(3-(trifluoromethyl)benzamido)phenyl)isoquinoline-5-carboxamide], the IC50 was 6.1 nM at C-Raf; over 2500 nM at Abl; 61 nM on B-Raf (V600E); 87 nM at B-Raf (WT); over 2500 nM on EGFR; over 2500 nM at FGFR-1. The IC50 on FGFR-2 was over 2500 nM; at FLT-3, over 2500 nM; at Her-2, over 2500 nM; on IGF-1R it was over 2500 nM; at PDGFR-α, 393 nM; on PDGFR-β, 66 nM. Further, the IC50 is over 2500 nM at Src, 261 nM on VEGFR-2 and 210 nM in assay [1]. Besides, the inhibition at 1 µM at CDK1 was 9%; at CDK2, 6%; on PLK1, -1%; on Aurora B, 23%; at FGFR4, 7%; on PLK2 it was 7%. Further, the inhibition at 1 µM on PLK3 was 9%; on Tie-2, 20%; on VEGFR1, 9%; on c-Kit, 34%; at Aurora A, 62%.
In the case of `Cc1cn(-c2cc(NC(=O)c3ccc(C)c(NC(=O)c4cccc5c(N)nccc45)c3)cc(C(F)(F)F)c2)cn1` [Example 11, 1-amino-N-(2-methyl-5-((3-(4-methyl-1H-imidazol-1-yl)-5-(trifluoromethyl)phenyl)carbamoyl)phenyl)isoquinoline-5-carboxamide], inhibition at C-Raf was half-maximal at 94.8 nM (IC50).
Still for that read-out and setting: the result for `Cc1ccc(C(=O)Nc2ccc(Cl)c(C(F)(F)F)c2)cc1NC(=O)c1cccc2c(N)nccc12` [Example 4, 1-amino-N-(5-((4-chloro-3-(trifluoromethyl)phenyl)carbamoyl)-2-methylphenyl)isoquinoline-5-carboxamide] reads 10.7 nM.
